According to US12679878B2, “CRF2 receptor agonists and their use in therapy” (SANOFI, priority 2020, dated 2026):
Read-outs that look alike come from different tables or passages of the source. Starred links: 1 amine or outer side, 2 acyl side, 3 side chain; linkers in the order of their positions; H or OH if unused. Non-standard residues stand in square brackets, D forms with d. Residues, ends and D or L forms follow the SMILES beside them. Groups on a side chain read outwards from the residue. *: point of attachment. C16 diacid = O=C(O)CCCCCCCCCCCCCCC(=O)*; γGlu = O=C(O)[C@H](CCC(=O)[*:2])N[*:1]; AEEA = NCCOCCOCC(=O)O; Aib = CC(C)(N)C(=O)O

Key:
[1] = biological target: T1, human CRF2α receptor (Homo sapiens, UniProt Q13324); assay: cAMP agonism at human CRF2α receptor in TeloHEAC cells, FA modified peptides (Example 19.9); assay type: cell-based; conditions: 0% HSA, relative to urocortin 2
T1 construct: expressed in transfected cells; host or cells: TeloHEAC
T1 sequence (Q13324 1-411): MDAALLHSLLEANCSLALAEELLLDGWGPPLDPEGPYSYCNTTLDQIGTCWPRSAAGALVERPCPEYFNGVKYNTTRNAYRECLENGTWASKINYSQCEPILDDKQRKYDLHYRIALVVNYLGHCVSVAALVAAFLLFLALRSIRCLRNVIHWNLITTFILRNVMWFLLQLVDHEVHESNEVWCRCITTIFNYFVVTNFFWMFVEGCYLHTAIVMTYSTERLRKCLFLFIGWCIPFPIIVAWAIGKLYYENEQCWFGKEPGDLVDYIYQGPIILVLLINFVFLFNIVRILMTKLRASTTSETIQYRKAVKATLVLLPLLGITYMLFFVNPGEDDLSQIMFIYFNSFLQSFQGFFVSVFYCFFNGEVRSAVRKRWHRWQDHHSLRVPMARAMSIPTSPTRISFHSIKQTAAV
Method: Agonism of compounds for human corticotropin-releasing factor 2α (CRF2α receptor) was determined by a functional assay measuring cAMP modulation upon treatment of TeloHEAC cells stably expressing human CRF2α receptor.
Compounds were dissolved at 0.5 mM in 100% DMSO and serially diluted (1:2) in 100% DMSO for 16 dilutions. 20 nL of each dilution was then transferred to 384-well assay plate using an acoustic droplet ejection instrument. 5 μL of compound buffer (1×HBSS; 20 mM HEPES, 2 mM IBMX, 0% or 0.2% HSA) were then added to each well.
Prior to use, frozen cells were thawed quickly at 37° C. and washed (5 min at 900 rpm) with 20 mL cell buffer (1×HBSS; 20 mM HEPES). Cells were resuspended in cell buffer and adjusted to a cell density of 800.000 cells/ml.
5 μL cells (final dell density: 4000 cells/well) were dispensed in the compound-containing 384-well assay plate and incubated for 30 minutes 37° C.
The CAMP level in treated cells was determined using the Cisbio 62AM4PEC kit according to manufacturer's instruction. Finally, plates were incubated for 1 h at room temperature before measuring the fluorescence ratio between 665/620 nm.
The percent activity value (E %) was calculated by setting 100 nM of urocortin 2 (UCN2) as 100%. The in vitro potency of the compounds was quantified by determining the concentrations that caused 50% activation of maximal response (EC50) relative to urocortin 2.

[2] = biological target: T2, CRF1R receptor (Homo sapiens, UniProt P34998); assay: cAMP activity at anti-target CRF1R, CHO-K1 cell line clone 2 (Example 19.10); assay type: cell-based; conditions: for Emax: 100% = Sauvagine at 100 nM
T2 construct: host or cells: CHO-K1 clone 2
T2 sequence (P34998 24-415): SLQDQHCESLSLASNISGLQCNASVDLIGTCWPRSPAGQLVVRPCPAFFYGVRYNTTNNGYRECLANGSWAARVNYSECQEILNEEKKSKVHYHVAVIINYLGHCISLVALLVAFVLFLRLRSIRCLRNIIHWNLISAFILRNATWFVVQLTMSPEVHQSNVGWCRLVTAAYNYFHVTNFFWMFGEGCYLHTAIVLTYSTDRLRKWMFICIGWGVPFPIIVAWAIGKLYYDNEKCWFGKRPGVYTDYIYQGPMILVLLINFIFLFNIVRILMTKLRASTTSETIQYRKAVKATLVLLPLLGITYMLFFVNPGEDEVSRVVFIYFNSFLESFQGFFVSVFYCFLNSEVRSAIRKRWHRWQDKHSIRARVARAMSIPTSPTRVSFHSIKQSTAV
Procedure, shortened: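 The cAMP read-out used the same protocol as the previous assay, except that Sauvagine at 100 nM set the 100% activation control. Cells were CHO-K1 clone 2 overexpressing CRF1R, cultured in F12 medium with 10% FBS and G418 and stored frozen until use.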

[3] = 0% HSA, CRF1R CHO-K1 clone 2, read-out: EC50 [nM] 0% HSA

EC50 [1] | EC50 [2, 3] | Emax ([2]; CRF1R CHO-K1 clone 2) | EC50 ([2]; Table 20 side-to-side comparison, read-out: CRF1 EC50) | CRF1/CRF2 ratio ([2]; ratio of CRF1 EC50 to CRF2 EC50) | SMILES
2.27 nM | > 100 nM | 24.4% | > 100 nM | >500 | CC[C@H](C)[C@H](N)C(=O)N[C@H](C(=O)N[C@@H](CC(C)C)C(=O)N[C@@H](CO)C(=O)N[C@@H](CC(C)C)C(=O)N[C@@H](CC(=O)O)C(=O)N[C@@H](C(=O)N1CCC[C@H]1C(=O)N[C@H](C(=O)N[C@@H](CCCCN)C(=O)N[C@@H](CC(C)C)C(=O)N[C@@H](CCCCNC(=O)CC[C@H](NC(=O)CCCCCCCCCCCCCCC(=O)O)C(=O)O)C(=O)N[C@@H](CCC(N)=O)C(=O)N[C@H](C(=O)N[C@@H](CC(C)C)C(=O)N[C@@H](CC(C)C)C(=O)N[C@@H](CCCCN)C(=O)N[C@@H](CCC(N)=O)C(=O)N[C@@H](C)C(=O)N[C@@H](CCCNC(=N)N)C(=O)N[C@@H](CCC(N)=O)C(=O)N[C@@H](CCCCN)C(=O)NC(C)(C)C(=O)N[C@@H](CCC(N)=O)C(=O)N[C@@H](CCCNC(=N)N)C(=O)N[C@@H](C)C(=O)N[C@@H](CCC(N)=O)C(=O)N[C@@H](C)C(=O)N[C@@H](CCC(=O)O)C(=O)N[C@@H](CCCCN)C(=O)N[C@@H](CC(N)=O)C(=O)N[C@@H](CCCCN)C(=O)N[C@@H](CCCNC(=N)N)C(=O)N[C@H](C(=O)N[C@@H](CC(C)C)C(=O)N[C@@H](CCC(=O)O)C(=O)N[C@@H](CCCNC(=N)N)C(=O)N[C@H](C(N)=O)C(C)C)[C@@H](C)CC)[C@@H](C)CC)[C@@H](C)CC)C(C)C)C(C)C [compound 197] (H-IVLSLD[dV]PIKLK([γGlu-C16 diacid])QILLKQARQK[Aib]QRAQAEKNKRILERV-NH2; N-terminus assumed)
0.49 nM | > 100 nM | 1.4% |  |  | CC[C@H](C)[C@H](N)C(=O)N[C@H](C(=O)N[C@@H](CC(C)C)C(=O)N[C@@H](CO)C(=O)N[C@@H](CC(C)C)C(=O)N[C@@H](CC(=O)O)C(=O)N[C@@H](C(=O)N1CCC[C@H]1C(=O)N[C@H](C(=O)N[C@@H](CCCCN)C(=O)N[C@@H](CC(C)C)C(=O)N[C@@H](CCCCNC(=O)COCCOCCNC(=O)COCCOCCNC(=O)CC[C@H](NC(=O)CCCCCCCCCCCCCCC(=O)O)C(=O)O)C(=O)N[C@@H](CCC(N)=O)C(=O)N[C@H](C(=O)N[C@@H](CC(C)C)C(=O)N[C@@H](CC(C)C)C(=O)N[C@@H](CCCCN)C(=O)N[C@@H](CCC(N)=O)C(=O)N[C@@H](CCC(=O)O)C(=O)N[C@@H](CCCNC(=N)N)C(=O)N[C@@H](CCC(N)=O)C(=O)N[C@@H](CCCCN)C(=O)NC(C)(C)C(=O)N[C@@H](CCC(N)=O)C(=O)N[C@@H](CCCNC(=N)N)C(=O)N[C@@H](CCC(=O)O)C(=O)N[C@@H](CCC(N)=O)C(=O)N[C@@H](C)C(=O)N[C@@H](CCC(=O)O)C(=O)N[C@@H](CCCCN)C(=O)N[C@@H](CC(N)=O)C(=O)N[C@@H](CCCCN)C(=O)N[C@@H](CCC(N)=O)C(=O)N[C@H](C(=O)N[C@@H](CC(C)C)C(=O)N[C@@H](C)C(=O)N[C@@H](CCC(N)=O)C(=O)N[C@H](C(N)=O)C(C)C)[C@@H](C)CC)[C@@H](C)CC)[C@@H](C)CC)C(C)C)C(C)C [compound 198] (H-IVLSLD[dV]PIKLK([AEEA-AEEA-γGlu-C16 diacid])QILLKQERQK[Aib]QREQAEKNKQILAQV-NH2; N-terminus assumed)
1.39 nM | > 100 nM | -2.9% |  |  | CC[C@H](C)[C@H](N)C(=O)N[C@H](C(=O)N[C@@H](CC(C)C)C(=O)N[C@@H](CO)C(=O)N[C@@H](CC(C)C)C(=O)N[C@@H](CC(=O)O)C(=O)N[C@@H](C(=O)N1CCC[C@H]1C(=O)N[C@H](C(=O)N[C@@H](CCCCN)C(=O)N[C@@H](CC(C)C)C(=O)N[C@@H](CCCCNC(=O)COCCOCCNC(=O)COCCOCCNC(=O)CC[C@H](NC(=O)CC[C@H](NC(=O)CCCCCCCCCCCCCCC(=O)O)C(=O)O)C(=O)O)C(=O)N[C@@H](CCC(N)=O)C(=O)N[C@H](C(=O)N[C@@H](CC(C)C)C(=O)N[C@@H](CC(C)C)C(=O)N[C@@H](CCCCN)C(=O)N[C@@H](CCC(N)=O)C(=O)N[C@@H](CCC(=O)O)C(=O)N[C@@H](CCCNC(=N)N)C(=O)N[C@@H](CCC(N)=O)C(=O)N[C@@H](CCCCN)C(=O)NC(C)(C)C(=O)N[C@@H](CCC(N)=O)C(=O)N[C@@H](CCCNC(=N)N)C(=O)N[C@@H](CCC(=O)O)C(=O)N[C@@H](CCC(N)=O)C(=O)N[C@@H](C)C(=O)N[C@@H](CCC(=O)O)C(=O)N[C@@H](CCCCN)C(=O)N[C@@H](CC(N)=O)C(=O)N[C@@H](CCCCN)C(=O)N[C@@H](CCC(N)=O)C(=O)N[C@H](C(=O)N[C@@H](CC(C)C)C(=O)N[C@@H](C)C(=O)N[C@@H](CCC(N)=O)C(=O)N[C@H](C(N)=O)C(C)C)[C@@H](C)CC)[C@@H](C)CC)[C@@H](C)CC)C(C)C)C(C)C [compound 199] (H-IVLSLD[dV]PIKLK([AEEA-AEEA-γGlu-γGlu-C16 diacid])QILLKQERQK[Aib]QREQAEKNKQILAQV-NH2; N-terminus assumed)
8.7 nM | > 100 nM | 1.9% |  |  | CC[C@H](C)[C@H](N)C(=O)N[C@H](C(=O)N[C@@H](CC(C)C)C(=O)N[C@@H](CO)C(=O)N[C@@H](CC(C)C)C(=O)N[C@@H](CC(=O)O)C(=O)N[C@@H](C(=O)N1CCC[C@H]1C(=O)N[C@H](C(=O)N[C@@H](CCCCN)C(=O)N[C@@H](CC(C)C)C(=O)N[C@@H](CCCCNC(=O)COCCOCCNC(=O)COCCOCCNC(=O)CC[C@H](NC(=O)CCCCCCCCCCCCCCC(=O)O)C(=O)O)C(=O)N[C@@H](CCC(N)=O)C(=O)N[C@H](C(=O)N[C@@H](CC(C)C)C(=O)N[C@@H](CC(C)C)C(=O)N[C@@H](CCCCN)C(=O)N[C@@H](CCC(N)=O)C(=O)N[C@@H](CCC(=O)O)C(=O)N[C@@H](CCCNC(=N)N)C(=O)N[C@@H](CCC(N)=O)C(=O)N[C@@H](CCCCN)C(=O)N[C@@H](CCCCN)C(=O)NC(C)(C)C(=O)N[C@@H](CCCNC(=N)N)C(=O)N[C@@H](CCC(N)=O)C(=O)N[C@@H](CCCCN)C(=O)N[C@@H](C)C(=O)N[C@@H](CCC(=O)O)C(=O)N[C@@H](CCCCN)C(=O)N[C@@H](CC(N)=O)C(=O)N[C@@H](CCCCN)C(=O)N[C@@H](CCC(N)=O)C(=O)N[C@H](C(=O)N[C@@H](CC(C)C)C(=O)N[C@@H](C)C(=O)N[C@@H](CCC(N)=O)C(=O)N[C@H](C(N)=O)C(C)C)[C@@H](C)CC)[C@@H](C)CC)[C@@H](C)CC)C(C)C)C(C)C [compound 200] (H-IVLSLD[dV]PIKLK([AEEA-AEEA-γGlu-C16 diacid])QILLKQERQKK[Aib]RQKAEKNKQILAQV-NH2; N-terminus assumed)
